{"source": "paper PMC5218480", "about": "(PLoS ONE, 2017)", "test_system": "MV-4-11 cells", "experiment": "Gene expression microarray analysis (Affymetrix PrimeView) and GSEA", "format": "cell-based, human", "parameters": "RFU PODN (11730768_x_at) / Fold change /veh PODN (11730768_x_at) / RFU LINC00158 (11744669_a_at) / Fold change /veh LINC00158 (11744669_a_at) / RFU DUSP10 (11751237_a_at) / Fold change /veh DUSP10 (11751237_a_at) / RFU ID3 (11757404_x_at) / Fold change /veh ID3 (11757404_x_at) / RFU PLEKHG5 (11737974_s_at) / Fold change /veh PLEKHG5 (11737974_s_at) / RFU LRRC4B (11730491_at) / Fold change /veh LRRC4B (11730491_at) / RFU GIMAP4 (11747438_a_at) / Fold change /veh GIMAP4 (11747438_a_at) / RFU KRT8 (11758183_x_at) / Fold change /veh KRT8 (11758183_x_at) / RFU CNN1 (11734310_a_at) / Fold change /veh CNN1 (11734310_a_at) / RFU VPS37D (11726825_at) / Fold change /veh VPS37D (11726825_at) / RFU C10orf10 (11716522_x_at) / Fold change /veh C10orf10 (11716522_x_at) / RFU KIR2DL2 /// KIR2DL4 /// KIR2DL5A /// KIR2DL5B /// KIR2DS1 /// KIR2DS2 /// KIR2DS3 /// KIR2DS4 /// KIR3DL3 /// KIR3DL3 /// KIR3DS1 (11738374_at) / Fold change /veh KIR2DL2 /// KIR2DL4 /// KIR2DL5A /// KIR2DL5B /// KIR2DS1 /// KIR2DS2 /// KIR2DS3 /// KIR2DS4 /// KIR3DL3 /// KIR3DL3 /// KIR3DS1 (11738374_at) / RFU C1QL1 (11718748_at) / Fold change /veh C1QL1 (11718748_at) / RFU TMPRSS4 (11747572_a_at) / Fold change /veh TMPRSS4 (11747572_a_at) / RFU HAMP (11756126_x_at) / Fold change /veh HAMP (11756126_x_at) / RFU RNFT2 (11725882_a_at) / Fold change /veh RNFT2 (11725882_a_at) / RFU NR4A2 (11747474_a_at) / Fold change /veh NR4A2 (11747474_a_at) / RFU ABCC12 (11746883_a_at) / Fold change /veh ABCC12 (11746883_a_at) / RFU TMEM136 (11760407_x_at) / Fold change /veh TMEM136 (11760407_x_at) / RFU CLDN22 /// WWC2 (11732394_at) / Fold change /veh CLDN22 /// WWC2 (11732394_at) / RFU HLA-DPB1 (11760878_x_at) / Fold change /veh HLA-DPB1 (11760878_x_at) / RFU SPINT1 (11716480_a_at) / Fold change /veh SPINT1 (11716480_a_at) / RFU GAP43 (11754022_s_at) / Fold change /veh GAP43 (11754022_s_at) / RFU A4GNT (11735810_at) / Fold change /veh A4GNT (11735810_at) / RFU PRB3 (11715151_x_at) / Fold change /veh PRB3 (11715151_x_at) / RFU TUBB4B (11761932_at) / Fold change /veh TUBB4B (11761932_at) / RFU CAPN14 (11732068_a_at) / Fold change /veh CAPN14 (11732068_a_at) / RFU TMCC2 (11721928_a_at) / Fold change /veh TMCC2 (11721928_a_at) / RFU IRGQ (11745062_a_at) / Fold change /veh IRGQ (11745062_a_at) / RFU FAM174B (11720279_a_at) / Fold change /veh FAM174B (11720279_a_at) / RFU TMPRSS4 (11748680_a_at) / Fold change /veh TMPRSS4 (11748680_a_at) / RFU FAM212B (11763350_a_at) / Fold change /veh FAM212B (11763350_a_at) / RFU PLEKHG5 (11743358_a_at) / Fold change /veh PLEKHG5 (11743358_a_at) / RFU ZSCAN30 (11745921_a_at) / Fold change /veh ZSCAN30 (11745921_a_at) / RFU CMKLR1 (11741424_a_at) / Fold change /veh CMKLR1 (11741424_a_at) / RFU LOC101060620 /// MAPK8IP1 (11723275_at) / Fold change /veh LOC101060620 /// MAPK8IP1 (11723275_at) / RFU SPTSSB (11747773_x_at) / Fold change /veh SPTSSB (11747773_x_at) / RFU PRSS12 (11739890_at) / Fold change /veh PRSS12 (11739890_at) / RFU BIN1 (11741810_x_at) / Fold change /veh BIN1 (11741810_x_at) / RFU WNT11 (11732464_a_at) / Fold change /veh WNT11 (11732464_a_at) / RFU C10orf10 (11716521_a_at) / Fold change /veh C10orf10 (11716521_a_at) / RFU C5orf56 (11738089_at) / Fold change /veh C5orf56 (11738089_at) / RFU CYB561 (11721691_x_at) / Fold change /veh CYB561 (11721691_x_at) / RFU ANKRD19P (11752326_a_at) / Fold change /veh ANKRD19P (11752326_a_at) / RFU OR2T12 /// OR2T33 /// OR2T8 (11738714_s_at) / Fold change /veh OR2T12 /// OR2T33 /// OR2T8 (11738714_s_at) / RFU VCAN (11748164_a_at) / Fold change /veh VCAN (11748164_a_at) / RFU JSRP1 (11732532_at) / Fold change /veh JSRP1 (11732532_at) / RFU KRTAP10-11 (11738290_x_at) / Fold change /veh KRTAP10-11 (11738290_x_at) / RFU MYO3A (11730013_a_at) / Fold change /veh MYO3A (11730013_a_at) / RFU EBF3 (11725865_a_at) / Fold change /veh EBF3 (11725865_a_at) / RFU CAMK2N1 (11719241_x_at) / Fold change /veh CAMK2N1 (11719241_x_at) / RFU C5orf56 (11738088_a_at) / Fold change /veh C5orf56 (11738088_a_at) / RFU OLFML3 (11715873_a_at) / Fold change /veh OLFML3 (11715873_a_at) / RFU LOC100653217 /// NTM (11731650_a_at) / Fold change /veh LOC100653217 /// NTM (11731650_a_at) / RFU MAPK11 (11762145_a_at) / Fold change /veh MAPK11 (11762145_a_at) / RFU FIZ1 (11724087_x_at) / Fold change /veh FIZ1 (11724087_x_at) / RFU OASL (11726364_x_at) / Fold change /veh OASL (11726364_x_at) / RFU SOX15 (11748057_x_at) / Fold change /veh SOX15 (11748057_x_at) / RFU CD79A (11719716_a_at) / Fold change /veh CD79A (11719716_a_at) / RFU HIST1H1D (11736915_at) / Fold change /veh HIST1H1D (11736915_at) / RFU CASKIN2 (11723855_a_at) / Fold change /veh CASKIN2 (11723855_a_at) / RFU LOC730098 (11760151_x_at) / Fold change /veh LOC730098 (11760151_x_at) / RFU OR4N2 (11742367_at) / Fold change /veh OR4N2 (11742367_at) / RFU PRRT2 (11749266_a_at) / Fold change /veh PRRT2 (11749266_a_at) / RFU SNX32 (11753110_a_at) / Fold change /veh SNX32 (11753110_a_at) / RFU CDHR5 (11726645_a_at) / Fold change /veh CDHR5 (11726645_a_at) / RFU RCAN1 (11760418_a_at) / Fold change /veh RCAN1 (11760418_a_at) / RFU FAM167A (11723789_a_at) / Fold change /veh FAM167A (11723789_a_at) / RFU FAM26E (11764081_at) / Fold change /veh FAM26E (11764081_at) / RFU ISYNA1 (11749810_s_at) / Fold change /veh ISYNA1 (11749810_s_at) / RFU ACY1 (11761880_at) / Fold change /veh ACY1 (11761880_at) / RFU 11764098_at / Fold change /veh 11764098_at / RFU SAMD14 (11745864_x_at) / Fold change /veh SAMD14 (11745864_x_at) / RFU NPB (11741838_a_at) / Fold change /veh NPB (11741838_a_at) / RFU TMPRSS6 (11731388_a_at) / Fold change /veh TMPRSS6 (11731388_a_at) / RFU KRTAP10-2 (11738614_at) / Fold change /veh KRTAP10-2 (11738614_at) / RFU ARHGAP8 /// PRR5-ARHGAP8 (11727945_x_at) / Fold change /veh ARHGAP8 /// PRR5-ARHGAP8 (11727945_x_at) / RFU KRTAP5-7 /// NADSYN1 (11734609_at) / Fold change /veh KRTAP5-7 /// NADSYN1 (11734609_at) / RFU RASL12 (11751679_a_at) / Fold change /veh RASL12 (11751679_a_at) / RFU CDKN2B (11736163_a_at) / Fold change /veh CDKN2B (11736163_a_at) / RFU PRF1 (11729649_at) / Fold change /veh PRF1 (11729649_at) / RFU, ZNF638 /// ZNF638-IT1 / Fold change vs veh, ZNF638 /// ZNF638-IT1 / RFU, PANK3 / Fold change vs veh, PANK3 / RFU, SH3YL1 / Fold change vs veh, SH3YL1 / RFU, ZEB2 / Fold change vs veh, ZEB2 / RFU, NRIP1 / Fold change vs veh, NRIP1 / RFU, PTTG1IP / Fold change vs veh, PTTG1IP / RFU, CAPN2 / Fold change vs veh, CAPN2 / RFU, MED14 / Fold change vs veh, MED14 / RFU, SNORA58 / Fold change vs veh, SNORA58 / RFU, C1orf63 / Fold change vs veh, C1orf63 / RFU, LRRFIP1 / Fold change vs veh, LRRFIP1 / RFU, NDUFAF7 / Fold change vs veh, NDUFAF7 / RFU, SLC12A2 / Fold change vs veh, SLC12A2 / RFU, IBTK / Fold change vs veh, IBTK / RFU, ESF1 / Fold change vs veh, ESF1 / Fold change vs veh, TMEM50B / RFU, TAOK1 / Fold change vs veh, TAOK1 / RFU, ACBD3 / Fold change vs veh, ACBD3 / RFU, TMA16 / Fold change vs veh, TMA16 / RFU, RWDD3 / Fold change vs veh, RWDD3 / RFU, BCAT1 / Fold change vs veh, BCAT1 / RFU, EDEM3 / Fold change vs veh, EDEM3 / RFU, TMEM33 / Fold change vs veh, TMEM33 / RFU, WDR75 / Fold change vs veh, WDR75 / RFU, AHCTF1 / Fold change vs veh, AHCTF1 / RFU, TFRC / Fold change vs veh, TFRC / RFU, ZDHHC17 / Fold change vs veh, ZDHHC17 / RFU, NOM1 / Fold change vs veh, NOM1 / RFU, ARL8B / Fold change vs veh, ARL8B / RFU, ZBTB11 / Fold change vs veh, ZBTB11 / RFU, TAMM41 / Fold change vs veh, TAMM41 / RFU, KIAA1704 /// LOC100996395 / Fold change vs veh, KIAA1704 /// LOC100996395 / RFU, ING1 / Fold change vs veh, ING1 / RFU, TRMT61B / Fold change vs veh, TRMT61B / RFU, FUBP3 / Fold change vs veh, FUBP3 / RFU, TP53 / Fold change vs veh, TP53 / RFU, TNKS2 / Fold change vs veh, TNKS2 / RFU, ZFP14 / Fold change vs veh, ZFP14 / RFU, ACTR2 / Fold change vs veh, ACTR2 / RFU, PPP3R1 / Fold change vs veh, PPP3R1 / RFU, PIK3R1 / Fold change vs veh, PIK3R1 / RFU, HNRNPA1 / Fold change vs veh, HNRNPA1 / RFU, RNF170 / Fold change vs veh, RNF170 / RFU, ZNF28 / Fold change vs veh, ZNF28 / RFU, RNGTT / Fold change vs veh, RNGTT / RFU, OGT / Fold change vs veh, OGT / RFU, BRD1 / Fold change vs veh, BRD1 / RFU, MARS / Fold change vs veh, MARS / RFU, ZNF655 / Fold change vs veh, ZNF655 / RFU, FAHD1 / Fold change vs veh, FAHD1 / RFU, BDP1 / Fold change vs veh, BDP1 / RFU, LRRCC1 / Fold change vs veh, LRRCC1 / RFU, ARID1A / Fold change vs veh, ARID1A / RFU, ZNF146 / Fold change vs veh, ZNF146 / RFU, ZNF330 / Fold change vs veh, ZNF330 / RFU, GPN3 / Fold change vs veh, GPN3 / RFU, C9orf123 / Fold change vs veh, C9orf123 / RFU, N4BP2L2 / Fold change vs veh, N4BP2L2 / RFU, ARFIP1 / Fold change vs veh, ARFIP1 / RFU, FAM179B / Fold change vs veh, FAM179B / RFU, BCL10 / Fold change vs veh, BCL10 / RFU, UHRF1BP1L / Fold change vs veh, UHRF1BP1L / RFU, BET1 / Fold change vs veh, BET1 / RFU, CNOT2 / Fold change vs veh, CNOT2 / RFU, ZNF268 / Fold change vs veh, ZNF268 / Fold change vs veh, ZNF507 / RFU, DGCR2 / Fold change vs veh, DGCR2 / RFU, WDSUB1 / Fold change vs veh, WDSUB1 / Fold change vs veh, HSP90B1 /// MIR3652 / RFU, ADSS / Fold change vs veh, ADSS / RFU, GK / Fold change vs veh, GK / RFU, ZNF148 / Fold change vs veh, ZNF148 / RFU, TAF9 / Fold change vs veh, TAF9 / RFU, SLC1A5 / Fold change vs veh, SLC1A5 / RFU, SLMO2 / Fold change vs veh, SLMO2 / RFU, ABCC4 / Fold change vs veh, ABCC4 / RFU, LOC101060439 /// RAP1B / Fold change vs veh, LOC101060439 /// RAP1B / RFU, RFX7 / Fold change vs veh, RFX7 / RFU, GTPBP10 / Fold change vs veh, GTPBP10 / RFU, CNEP1R1 / Fold change vs veh, CNEP1R1 / RFU, BIVM-ERCC5 /// ERCC5 / Fold change vs veh, BIVM-ERCC5 /// ERCC5 / RFU, ILF3 / Fold change vs veh, ILF3 / RFU 11762660_at / Fold change /veh 11762660_at / RFU VCAN (11757783_s_at) / Fold change /veh VCAN (11757783_s_at) / RFU DDX43 (11728927_at) / Fold change /veh DDX43 (11728927_at) / RFU KRT8 (11758188_x_at) / Fold change /veh KRT8 (11758188_x_at) / RFU NKD1 (11759106_at) / Fold change /veh NKD1 (11759106_at) / RFU SRD5A1 (11742802_a_at) / Fold change /veh SRD5A1 (11742802_a_at) / RFU TPSAB1 /// TPSB2 (11721975_s_at) / Fold change /veh TPSAB1 /// TPSB2 (11721975_s_at) / RFU GSTM3 (11746129_a_at) / Fold change /veh GSTM3 (11746129_a_at) / RFU IL23R (11737362_x_at) / Fold change /veh IL23R (11737362_x_at) / RFU TMEM51 (11727254_a_at) / Fold change /veh TMEM51 (11727254_a_at) / RFU PIWIL2 (11732686_x_at) / Fold change /veh PIWIL2 (11732686_x_at) / RFU ORM1 (11744905_x_at) / Fold change /veh ORM1 (11744905_x_at) / RFU CCDC152 (11743942_at) / Fold change /veh CCDC152 (11743942_at) / RFU ECM1 (11717891_a_at) / Fold change /veh ECM1 (11717891_a_at) / RFU IL23R (11748794_a_at) / Fold change /veh IL23R (11748794_a_at) / RFU TNFAIP8L3 (11732012_x_at) / Fold change /veh TNFAIP8L3 (11732012_x_at) / RFU MBOAT4 (11741988_at) / Fold change /veh MBOAT4 (11741988_at) / RFU 11764193_at / Fold change /veh 11764193_at / RFU TMEM53 (11763286_at) / Fold change /veh TMEM53 (11763286_at) / RFU MAGEB2 (11727129_at) / Fold change /veh MAGEB2 (11727129_at) / RFU TMEM200A (11744735_a_at) / Fold change /veh TMEM200A (11744735_a_at) / RFU CCDC152 (11751479_a_at) / Fold change /veh CCDC152 (11751479_a_at) / RFU FAM211A (11726209_a_at) / Fold change /veh FAM211A (11726209_a_at) / RFU RGS16 (11746705_a_at) / Fold change /veh RGS16 (11746705_a_at) / RFU VCAN (11755009_s_at) / Fold change /veh VCAN (11755009_s_at) / RFU RHOB (11743442_s_at) / Fold change /veh RHOB (11743442_s_at) / RFU RGS16 (11720943_a_at) / Fold change /veh RGS16 (11720943_a_at) / RFU RGS16 (11720944_at) / Fold change /veh RGS16 (11720944_at) / RFU, VPS4B / Fold change vs veh, VPS4B / RFU, CREB1 / Fold change vs veh, CREB1 / RFU, DNAJC13 / Fold change vs veh, DNAJC13 / RFU, GNAQ / Fold change vs veh, GNAQ / RFU, CDK5R1 / Fold change vs veh, CDK5R1 / RFU, ZRANB3 / Fold change vs veh, ZRANB3 / RFU, CUL4A / Fold change vs veh, CUL4A / RFU, CCNY / Fold change vs veh, CCNY / RFU, UFL1 / Fold change vs veh, UFL1 / RFU, COG3 / Fold change vs veh, COG3 / RFU, DIAPH2 / Fold change vs veh, DIAPH2 / RFU, SKA2 / Fold change vs veh, SKA2 / RFU, AFF3 / Fold change vs veh, AFF3 / RFU, LMF1 / Fold change vs veh, LMF1 / RFU, IPO11 / Fold change vs veh, IPO11 / RFU, DFFB / Fold change vs veh, DFFB / RFU, FOXP1 / Fold change vs veh, FOXP1 / RFU, CARD8 / Fold change vs veh, CARD8 / RFU, STRN3 / Fold change vs veh, STRN3 / RFU, ADK / Fold change vs veh, ADK / RFU, RASSF2 / Fold change vs veh, RASSF2 / RFU, WIPF1 / Fold change vs veh, WIPF1 / RFU, LARP1B / Fold change vs veh, LARP1B / RFU, RASA1 / Fold change vs veh, RASA1 / RFU, RB1 / Fold change vs veh, RB1 / RFU, PPFIA1 / Fold change vs veh, PPFIA1 / RFU, MAT2A / Fold change vs veh, MAT2A / RFU, CCT5 / Fold change vs veh, CCT5 / RFU, WDR92 / Fold change vs veh, WDR92 / RFU, CUX1 / Fold change vs veh, CUX1 / RFU, TTC7A / Fold change vs veh, TTC7A / RFU, TMEM135 / Fold change vs veh, TMEM135 / RFU, DEPTOR / Fold change vs veh, DEPTOR / RFU, CPM / Fold change vs veh, CPM / RFU, DNAJB6 / Fold change vs veh, DNAJB6 / RFU, CACNA2D3 / Fold change vs veh, CACNA2D3 / RFU, DTX4 / Fold change vs veh, DTX4 / RFU, TFCP2 / Fold change vs veh, TFCP2 / RFU, GMCL1 /// GMCL1P1 / Fold change vs veh, GMCL1 /// GMCL1P1 / RFU, AEBP2 / Fold change vs veh, AEBP2 / RFU, SNHG1 /// SNORD22 /// SNORD25 /// SNORD26 /// SNORD27 /// SNORD28 /// SNORD29 /// SNORD31 / Fold change vs veh, SNHG1 /// SNORD22 /// SNORD25 /// SNORD26 /// SNORD27 /// SNORD28 /// SNORD29 /// SNORD31 / Fold change (Aza/veh), C12orf56 (ProbeSet 11735607_a_at) / Fold change (ACY-1035/veh), C12orf56 (ProbeSet 11735607_a_at) / Fold change (Aza/veh), FGFR1OP (ProbeSet 11751329_s_at) / Fold change (ACY-1035/veh), FGFR1OP (ProbeSet 11751329_s_at) / Fold change (Aza/veh), VPS36 (ProbeSet 11739960_a_at) / Fold change (ACY-1035/veh), VPS36 (ProbeSet 11739960_a_at) / RFU SYPL1 (11715823_x_at) / Fold change /veh SYPL1 (11715823_x_at) / RFU IGFBP7 (11715501_s_at) / Fold change /veh IGFBP7 (11715501_s_at) / RFU REEP3 (11722064_at) / Fold change /veh REEP3 (11722064_at) / RFU IGLL1 (11728026_x_at) / Fold change /veh IGLL1 (11728026_x_at): dose or concentration left out as unconfirmed", "conditions": "ProbeSet 11726661_s_at; LIST B"}
{"smiles": "Nc1ccc(-c2cccs2)cc1NC(=O)c1ccc2c(c1)cc(C1CC1)n2CCN1CCOCC1", "note": "[ACY-1035]", "values": [{"measurement": "Fold change vs veh, GPN3", "result": 0.89}]}
